Data: patent US6548543B1, “Remedies or preventives containing cyclopentenone compounds as the active ingredient” (Takara Shuzo Co., Ltd., priority 1998, dated 2003)

Tests used:
[1] = tested on: 70-kDa heat shock protein; assay: Induction of 70-kDa heat shock protein in HL-60 cells (Western blot); assay type: cell-based; parameters: key to Degree of induction of 70-kDa heat shock protein: − means that no induction was observed; ± means that a slight induction was observed; + represents the induction level; ++: Increased number of + means increased induction; +++: Increased number of + means increased induction; details: HL-60, 6 hours
Description: (1) 5 ml of RPMI 1640 medium containing 10% fetal calf serum and HL-60 (ATCC CCL-240) cells at a concentration of 2×10^5 cells/ml was placed in each well of a 6-well plate. The plate was incubated at 37° C. for 24 hours in the presence of 5% CO2. Dipropionylcyclopentenone, diisobutyrylcyclopentenone or di-2-hexenoylcyclopentenone at a final concentration of 0, 0.63, 1.3, 2.5, 5, 10 or 20 μM was then added thereto. The incubation was continued for additional 6 hours.
After incubation, the cell number was counted. The cells were harvested by centrifugation, washed with PBS to prepare cells treated with one of the samples. Cells that were cultured in the same manner after heated at 45° C. for 10 minutes were also prepared.
These treated cells were used for SDS-PAGE according to the method as described in Molecular Cloning [Cold Spring Harbor Laboratory Press (1989)]. The treated cells were suspended in SDS-PAGE Sample buffer at a concentration of 2.5×10^6 cells/ml. The cell suspensions were treated at 100° C. for 10 minutes. 5 μl each of the cell suspensions was applied to two SDS-PAGE gels (5% stacking gel, 10% separation gel) and electrophoresed. One of the gels was subjected to Coomassie staining. The other gel was blotted onto a polyvinylidene difluoride transfer membrane (Immobilon™, Millipore, Cat. #IPVH000-10). The membrane was blocked at 4° C. overnight using Block Ace (Dainippon Pharmaceutical, Cat. #UK-B25).
The blocked membrane was reacted with a monoclonal antibody HSP72/73(Ab-1) (Oncogene Research Products, Cat. #HSP01), which specifically reacts with heat-inducible 70-kDa heat shock protein. The membrane was washed with TBS containing 0.05% Tween 20 followed by TBS. The membrane was then reacted with a peroxidase-conjugated secondary antibody HRP-Rabbit Anti-Mouse IgG (H+L) (Zymed Laboratories, Inc., Cat. #61-6520), and then washed as described above. The membrane reacted with the primary and secondary antibodies was reacted with a chemiluminol reagent Renaissance™ (Dupont NEN, Cat. #NEL-100). The membrane was then exposed to an X-ray film to confirm the induction of 70-kDa heat shock protein.

[2] = tested on: Candida albicans TIMM0136; assay: Antifungal activity, growth inhibition; assay type: cell-based; details: 10 μl of solution at 100 or 500 μg/ml added to 100 μl culture; 30° C., 48 hours
Description: Dipropionylcyclopentenone, diisobutyrylcyclopentenone and di-2-hexenoylcyclopentenone were used to examine their antifungal activities against Candida albicans TIMM0136.
Candida albicans cells were cultured overnight in YNBG medium containing 0.67% Yeast Nitrogen Base (Difco) and 1.0% glucose (seed culture). The culture was then diluted with fresh Yeast Nitrogen Base medium to a concentration of 1×10^6 cells/ml. 100 μl of the dilution was dispensed into each well of a 96-well microtiter plate.
10 μl each of solutions of dipropionylcyclopentenone, diisobutyrylcyclopentenone or di-2-hexenoylcyclopentenone in 70% ethanol at a concentration of 100 μg/ml or 500 μg/ml, or 10 μl of 70% ethanol solution was added to the well. The plate was incubated without shaking at 30° C. for 48 hours (main culture).

[3] = tested on: mixed spleen lymphocytes (BALB/c and C57BL/6); assay: Mixed lymphocyte reaction, 3H-thymidine uptake; assay type: cell-based, mouse; details: 1 μM
Description: (2) Spleens were taken out from a BALB/c mouse (male, 6 weeks old, purchased from Japan SLC) and a C57BL/6 mouse (male, 6 weeks old, purchased from Japan SLC) and spleen lymphocytes were obtained according to the method as described in Example 11-(1). The concentration of each of the cell suspensions was adjusted to 2×10^6 cell/ml, 100 μl portions from respective suspensions were mixed together and seeded into a 96-well microtiter plate. Dipropionylcyclopentenone at a varying concentration was added to the wells other than the control well, and the plate was incubated at 37° C. for 4 days in a CO2 incubator. After incubation, 1 μCi of ^3H-thymidine was added to each well, and the plate was incubated for additional 1 day. The uptake into cells was measured using a liquid scintillation counter.
FIG. 8 illustrates the relationship between the concentration of dipropionylcyclopentenone and the amount of ^3H-thymidine uptake. The horizontal axis represents the dipropionylcyclopentenone concentration (μM) and the vertical axis represents ^3H-thymidine uptake (CPM). The open bar represents the ^3H-thymidine uptake when cells from one of the lines were used independently. The shaded bar represents the ^3H-thymidine uptake when cells from both of the lines were mixed together.

Mouse solid tumor Meth A = assay: Mouse solid tumor Meth A, weight of cancer; assay type: in vivo, BALB/c mouse; details: subcutaneous at tumor site for successive 5 days, after 2 weeks
Description: (2) Mouse solid tumor Meth A (2×10^6 cells/mouse) was subcutaneously injected into a back of a 8-weeks old female BALB/c mouse. Subsequently, dipropionylcyclopentenone was subcutaneously injected at the same site for successive 5 days. Saline was subcutaneously injected to a control group in a similar manner. Each group consisted of 8 mice.
After 2 weeks, the cancerous tissue formed in the back of the mouse was taken out and the weight of the tissue was measured.

Meth A = assay: Ascitic cancer Meth A, prolongation of survival, 5 successive days; assay type: in vivo, BALB/c mouse; details: for 30-day survival number: groups of 8 mice
Description: (3) The carcinostatic activities of dipropionylcyclopentenone and diisobutyrylcyclopentenone against various ascitic cancers were examined using two types of cancer cells, Ehrlich ascites carcinoma (EAC) and Meth A, administered intraperitoneally or orally at a varying dose.
Dipropionylcyclopentenone or diisobutyrylcyclopentenone was intraperitoneally or orally administered for 5 successive days from the day after the transplantation with cancer cells. Injectable distilled water was administered to a control group in a similar manner. Average days of survival, prolongation rate and 30-day survival number were calculated for groups each consisting of 8 mice.

CCC(=O)OC1C=CC(=O)C1OC(=O)CC (stereo not drawn)
Degree of induction of 70-kDa heat shock protein ([1]; 0.63 μM): −
Degree of induction of 70-kDa heat shock protein ([1]; 1.3 μM): ±
Degree of induction of 70-kDa heat shock protein ([1]; 2.5 μM): +
Degree of induction of 70-kDa heat shock protein ([1]; 5 μM): +++
Degree of induction of 70-kDa heat shock protein ([1]; 10 μM): ++
Degree of induction of 70-kDa heat shock protein ([1]; 20 μM): ++
Minimum growth inhibitory concentration [2]: 500 µg/mL
Inhibition of mixed lymphocyte reaction (FIG. 8) [3]: almost completely inhibited
Inhibition rate (Mouse solid tumor Meth A): 92.3%
Mice in which no cancerous tissue was formed (Mouse solid tumor Meth A): 5 out of 8
Weight of cancer mean ± SE (Mouse solid tumor Meth A): 0.05 ± 0.08 g
Weight of cancer mean ± SE (Mouse solid tumor Meth A; listed as dipropionylcyclopentenone): 0.05 g
Average days of survival (Meth A; intraperitoneal 10 mg/kg): 20.5 days
Prolongation rate (Meth A; intraperitoneal 10 mg/kg): 174%
30-day survival number (Meth A; intraperitoneal 10 mg/kg): 0
Average days of survival (Meth A; oral 30 mg/kg): 17.3 days
Prolongation rate (Meth A; oral 30 mg/kg): >147%
30-day survival number (Meth A; oral 30 mg/kg): 2
